Laboratory results published in PMC3377626, “Role of mprF1 and mprF2 in the Pathogenicity of Enterococcus faecalis” (PLoS ONE, 2012).
In brackets after ≈: the same amount, converted by molar mass. No end group written: not given here.

Legend:
12030ΔmprF1 = test: MIC by E-test; assay type: cell-based, Enterococcus faecalis; details: mprF1 deletion mutant
Description: (§1) The minimal inhibitory concentration (MIC) of polymyxin B, nisin, HBD-3, and colistin was determined in serial dilution with a modified NCCLS method. Experiments were performed in TSB broth in 96-well microtiter tissue culture plates (Greiner). Wells were inoculated with 50-µl volumes of a suspension containing approximately 1×10^6 CFU/ml of the test organism, and concentrations were confirmed by enumeration of CFUs after serial dilution. Microtiter plates were incubated overnight at 37°C, and the MICs were defined as the lowest concentration at which visible growth was inhibited. The MIC against daptomycin was determined by E-test according to standard laboratory procedures.

[1] = tested on: 12030ΔmprF2 CM (knock-in); test: MIC by E-test; assay type: cell-based, Enterococcus faecalis; details: mprF2 mutant complemented by knock-in
Description: as §1

12030ΔmprF2 = test: MIC by E-test; assay type: cell-based, Enterococcus faecalis; details: mprF2 deletion mutant
Description: as §1

E. faecalis 12030 [2] = test: MIC by E-test; assay type: cell-based, Enterococcus faecalis; details: wild-type strain
Description: as §1

E. faecalis 12030 ΔmprF2 = test: MIC by serial dilution (modified NCCLS method); assay type: cell-based, Enterococcus faecalis; details: for Minimal inhibotory concentration: mprF2 (EF_1027) deletion mutant, serial dilution in TSB broth, 96-well plates, approx. 1×10^6 CFU/ml, overnight at 37°C, lowest concentration at which visible growth was inhibited; for fold decreased MIC of 12030ΔmprF2 compared to the wild-type strain: ratio of MIC of wild type E. faecalis 12030 to MIC of 12030ΔmprF2, from Table 1
Description: as §1

E. faecalis 12030 [3] = test: MIC by serial dilution (modified NCCLS method); assay type: cell-based, Enterococcus faecalis; details: wild type strain; serial dilution in TSB broth, 96-well plates, approx. 1×10^6 CFU/ml, overnight at 37°C; lowest concentration at which visible growth was inhibited
Description: as §1

E. faecalis 12030 ΔmprF1 = test: MIC by serial dilution (modified NCCLS method); assay type: cell-based, Enterococcus faecalis; details: mprF1 (EF_0031) deletion mutant; serial dilution in TSB broth, 96-well plates, approx. 1×10^6 CFU/ml, overnight at 37°C; lowest concentration at which visible growth was inhibited
Description: as §1

[4] = tested on: E. faecalis 12030 ΔmprF2 CM; test: MIC by serial dilution (modified NCCLS method); assay type: cell-based, Enterococcus faecalis; details: mprF2 mutant complemented by knock-in of mprF2; serial dilution in TSB broth, 96-well plates, approx. 1×10^6 CFU/ml, overnight at 37°C; lowest concentration at which visible growth was inhibited
Description: as §1

S. aureus = S. aureus MprF mutant versus wild type; cited from earlier work
Excerpt: In contrast to S. aureus, however, there was no effect on ...

Molecule | MIC (12030ΔmprF1) [µg/mL] | MIC [1] [µg/mL] | MIC (12030ΔmprF2) [µg/mL] | MIC (E. faecalis 12030 [2]) [µg/mL] | Minimal inhibotory concentration (E. faecalis 12030 ΔmprF2) [µg/mL] | fold decreased MIC of 12030ΔmprF2 compared to the wild-type strain (E. faecalis 12030 ΔmprF2) [fold] | Minimal inhibotory concentration (E. faecalis 12030 [3]) [µg/mL] | Minimal inhibotory concentration (E. faecalis 12030 ΔmprF1) [µg/mL] | Minimal inhibotory concentration [4] [µg/mL] | fold drop of the MIC on mutation of MprF in S. aureus (S. aureus) [fold]
CCCCCCCCCC(=O)N[C@@H](Cc1c[nH]c2ccccc12)C(=O)N[C@H](CC(N)=O)C(=O)N[C@@H](CC(=O)O)C(=O)N[C@@H]1C(=O)NCC(=O)N[C@@H](CCCN)C(=O)N[C@@H](CC(=O)O)C(=O)N[C@H](C)C(=O)N[C@@H](CC(=O)O)C(=O)NCC(=O)N[C@H](CO)C(=O)N[C@@H]([C@H](C)CC(=O)O)C(=O)N[C@@H](CC(=O)c2ccccc2N)C(=O)O[C@@H]1C [daptomycin] | 0.25 (≈ 0.154 µM) | 0.25 (≈ 0.154 µM) | 0.25 (≈ 0.154 µM) | 0.19 (≈ 0.117 µM) | – | – | – | – | – | –
HBD-3: cationic antimicrobial peptide (CAMP) (GIINTLQKYYCRVRGGRCAVLSCLPKEEQIGKCSTRGRKCCRRKK; ends and bridges not checked; cysteine pairing not given here; UniProt P81534 23-67, looked up) | – | – | – | – | 128 | > 4 | >512 | – | – | –
colistin | – | – | – | – | 2048 | 2 | 4096 | – | – | –
nisin (ITSISLCTPGCKTGALMGCNMKTATCHCSIHVSK; cysteine pairing not given here; also: lantibiotic nisin-A, lanthionine/dehydro residues not placed; UniProt P13068 24-57, looked up) [cationic antimicrobial peptide (CAMP)] | – | – | – | – | 1 | 4 | 4 | 4 | 4 | 28
polymyxin B | – | – | – | – | 256 | 4 | 1024 | – | – | –
